Common to all, as to type: biochemical
One assay concerns the target GOB-1 (Elizabethkingia meningoseptica, UniProt Q9RB00). The assay is described as follows: GOB-1 inhibition assay with nitrocefin as substrate. As to conditions: Subclass B3 MBL, enzyme 2.69 μM, 100 μM nitrocefin, 5 minute pre-incubation. The text has this: (§1) The blaNDM-1 gene (GenBank ID: FN396876) from K. pneumoniae clinical isolate, blaIMP-1 gene (GenBank ID: S71932) from Acinetobacter baumannii clinical isolate, and blaVIM-2 gene (GenBank ID: AF191564) from Citrobacter freundii clinical isolate were cloned after PCR amplification with primer pairs (Table 3) and then sequenced. Those three clinical isolates were collected from a university hospital in the Republic of Korea. Three DNA templates encoding blaGIM-1 gene (GenBank ID: AJ620678), blacphA gene (GenBank ID: X57102), and blaGOB-1 gene (GenBank ID: AF090141), which are codon optimized for E. coli, were synthesized and purchased from IDT (Integrated DNA Technologies, Coralville, Iowa, USA). The DNA templates were amplified by PCR using suitable primer pairs (Table 3). The amplified DNA and pET-30a(+) vector (Novagen, Madison, Wis., USA) were double-digested with NdeI and XhoI, with digested DNA then ligated into the digested vector. After verifying the DNA sequences, the plasmids, pET-30a(+)/His6-blaNDM-1, pET-30a(+)/His6-blaIMP-1, pET-30a(+)/His6-blaVIM-2, pET-30a(+)/His6-blaGIM-1, pET-30a(+)/His6-blacphA, and pET-30a(+)/His6-blaGOB-1 were individually transformed into E. coli BL21 (DE3) cells. Each of the histidine-tagged proteins, NDM-1, IMP-1, VIM-2, GIM-1, CphA, and GOB-1 were prepared as previously described (Park, et al., J. Glob. Antimicrob. Resist., 14, 302-305 (2018)).
(§2) To investigate the inhibitory effects of novel compounds (DCPBA, ACP-DCPBA, and CHP-DCPBA) against four clinically-important subclass B1 MBLs (NDM-1, IMP-1, VIM-2, and GIM-1), subclass B2 MBL (CphA), and subclass B3 MBL (GOB-1), the IC50 values for them were determined (Table 4). Compounds (DCPBA, ACP-DCPBA, and CHP-DCPBA) were dissolved in 100% DMSO at 10 mM. Activities of MBLs were determined by monitoring the change of absorbance at 482 nm. Up to 5% DMSO, no influence on the enzyme activities of MBLs was observed. […] Data were evaluated using Microsoft Excel. Reaction progress at every concentration of DCPBA (ACP-DCPBA or CHP-DCPBA) was measured in triplicates.

A further assay concerns the target NDM-1 (Klebsiella pneumoniae, UniProt C7C422). The assay is described as follows: NDM-1 inhibition assay with nitrocefin as substrate. As for the experimental part: The screened seven compounds were dissolved in 100% DMSO at 10 mM. More diluted stocks were prepared as necessary. NDM-1 activity was determined by monitoring the change of absorbance at 482 nm using the characteristic molecular extinction coefficient (Δε482=15,900 M^−1 cm^−1) of nitrocefin (NCF) (Oxoid, Hampshire, UK) by a Shimazu UV-1650PC spectrophotometer. Up to 5% DMSO, no influence on the enzyme activities of MBLs was observed. The assays were conducted in 50 mM MES (pH 7.0) containing an enzyme (263 nM), 100 μM ZnCl2, and 100 μg/mL bovine serum albumin. After 5 min of pre-incubation of the purified enzyme and inhibitor at 30° C., the enzymatic reaction was started by adding nitrocefin (100 μM). Residual velocities were determined after 5 minutes. The first 120 s of each reaction was used to measure initial rates. Data were evaluated using Microsoft Excel. Concentration-dependent inhibition of NDM-1 was measured using different concentrations of seven compounds resulting from two-fold dilution series. Reaction progress at every concentration of seven compounds was measured in triplicates. IC50 values were calculated using 4-parameter log fits using XL Fit curve fitting software (www.idbs.com) for Excel using the following equation: […]
where y is the remaining enzyme activity (in %) and x is the corresponding concentration. The fitted IC50 parameter is defined as the concentration giving a response half way between the fitted top (B) and bottom (A) of the curve. […]
To investigate the inhibitory effects of novel compounds (DCPBA, ACP-DCPBA, and CHP-DCPBA) against four clinically-important subclass B1 MBLs (NDM-1, IMP-1, VIM-2, and GIM-1), subclass B2 MBL (CphA), and subclass B3 MBL (GOB-1), the IC50 values for them were determined (Table 4). […] Activities of MBLs were determined by monitoring the change of absorbance at 482 nm. […] Data were evaluated using Microsoft Excel. Reaction progress at every concentration of DCPBA (ACP-DCPBA or CHP-DCPBA) was measured in triplicates.

The target in a further assay is GIM-1 (Pseudomonas aeruginosa, UniProt Q704V1). The assay is described as follows: GIM-1 inhibition assay with nitrocefin as substrate.
Source text: as §1, §2

The target in the next assay is IMP-1 (Serratia marcescens, UniProt P52699). The assay is described as follows: IMP-1 inhibition assay with nitrocefin as substrate. Particulars: Subclass B1 MBL, enzyme 891 nM, 100 μM nitrocefin, 5 minute pre-incubation.
Source text: as §1, §2

A further assay deals with VIM-2 (Pseudomonas aeruginosa, UniProt Q9K2N0). Nature of the assay: VIM-2 inhibition assay with nitrocefin as substrate.
Source text: as §1, §2

In the next assay the target is CphA (Aeromonas hydrophila, UniProt P26918). Nature of the assay: CphA inhibition assay with nitrocefin as substrate. As to conditions: for IC50 of CphA relative to that for DCPBA: fold lower than DCPBA.
Source text: as §1
To investigate the inhibitory effects of novel compounds (DCPBA, ACP-DCPBA, and CHP-DCPBA) against four clinically-important subclass B1 MBLs (NDM-1, IMP-1, VIM-2, and GIM-1), subclass B2 MBL (CphA), and subclass B3 MBL (GOB-1), the IC50 values for them were determined (Table 4). Compounds (DCPBA, ACP-DCPBA, and CHP-DCPBA) were dissolved in 100% DMSO at 10 mM. Activities of MBLs were determined by monitoring the change of absorbance at 482 nm. Up to 5% DMSO, no influence on the enzyme activities of MBLs was observed. Each enzyme (NDM-1, 263 nM; IMP-1, 891 nM; VIM-2, 81 nM; GIM-1, 662 nM; CphA, 157 nM; GOB-1, 2.69 μM) was mixed with 100 μM nitrocefin after a 5 minute pre-incubation with compounds (DCPBA, ACP-DCPBA, and CHP-DCPBA). The first 120 s of each reaction was used to measure initial rates. Data were evaluated using Microsoft Excel. Reaction progress at every concentration of DCPBA (ACP-DCPBA or CHP-DCPBA) was measured in triplicates.

[1] abbreviates: Subclass B1 MBL, enzyme 263 nM, 100 μM nitrocefin, 5 minute pre-incubation, read-out: IC50 NDM-1.

What is called IC50 is the concentration that inhibits the measured activity by half.

Like-named read-outs stand apart in the source and are kept apart here.

CphA, sequence (P26918 28-254): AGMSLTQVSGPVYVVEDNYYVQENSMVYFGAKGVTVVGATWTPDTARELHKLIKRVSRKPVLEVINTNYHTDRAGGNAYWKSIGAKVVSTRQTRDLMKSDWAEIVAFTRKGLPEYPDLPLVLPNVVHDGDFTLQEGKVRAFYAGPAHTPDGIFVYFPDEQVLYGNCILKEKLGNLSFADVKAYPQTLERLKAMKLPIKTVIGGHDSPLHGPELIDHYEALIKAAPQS
NDM-1, sequence (C7C422 30-270 limits assumed, looked up): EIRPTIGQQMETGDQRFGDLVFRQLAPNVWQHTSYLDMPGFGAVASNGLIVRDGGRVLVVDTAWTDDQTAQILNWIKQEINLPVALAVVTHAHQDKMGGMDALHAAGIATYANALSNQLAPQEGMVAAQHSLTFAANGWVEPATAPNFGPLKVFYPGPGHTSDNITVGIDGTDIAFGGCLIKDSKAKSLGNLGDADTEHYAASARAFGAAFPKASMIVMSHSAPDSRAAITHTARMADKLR
GIM-1, sequence (Q704V1 19-250): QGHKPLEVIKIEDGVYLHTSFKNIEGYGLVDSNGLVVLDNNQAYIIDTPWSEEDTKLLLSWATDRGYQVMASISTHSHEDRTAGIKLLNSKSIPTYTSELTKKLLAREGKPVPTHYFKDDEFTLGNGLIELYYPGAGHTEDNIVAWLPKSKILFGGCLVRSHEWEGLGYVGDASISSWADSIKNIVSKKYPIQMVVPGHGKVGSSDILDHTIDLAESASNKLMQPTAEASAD
IMP-1, sequence (P52699 21-246 limits assumed): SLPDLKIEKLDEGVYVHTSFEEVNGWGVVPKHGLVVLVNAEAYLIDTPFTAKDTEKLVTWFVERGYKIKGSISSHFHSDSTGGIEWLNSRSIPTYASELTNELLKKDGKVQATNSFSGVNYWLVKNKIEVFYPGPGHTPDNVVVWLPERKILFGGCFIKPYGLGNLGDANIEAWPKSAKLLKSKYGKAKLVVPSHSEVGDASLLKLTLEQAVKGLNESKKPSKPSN
GOB-1, sequence (Q9RB00 entry or part of it): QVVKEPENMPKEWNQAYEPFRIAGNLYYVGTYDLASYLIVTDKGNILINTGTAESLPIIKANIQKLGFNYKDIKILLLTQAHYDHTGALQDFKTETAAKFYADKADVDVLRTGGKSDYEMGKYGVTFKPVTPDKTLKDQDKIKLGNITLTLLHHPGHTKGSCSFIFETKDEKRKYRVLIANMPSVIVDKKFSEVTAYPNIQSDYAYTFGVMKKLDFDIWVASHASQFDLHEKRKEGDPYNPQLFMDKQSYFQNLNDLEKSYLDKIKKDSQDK

On to `Nc1ccc(Oc2c(Cl)cc(B(O)O)cc2Cl)cc1Cl` [ACP-DCPBA, (4-(4-amino-3-chlorophenoxy)-3,5-dichlorophenyl)boronic Acid], for which the IC50 against GOB-1 turned out to be 790.24 ± 0.02 µM; on NDM-1 (setting [1]) it was 78.78 ± 0.01 µM; on GIM-1 it was 144.64 ± 0.01 µM; against IMP-1, 738.41 ± 0.01 µM; against VIM-2 it was 22.78 ± 0.01 µM; on CphA, 90.19 ± 0.01 µM. At CphA, the “IC50 of CphA relative to that for DCPBA” value is reported as “six-fold lower”.
`OB(O)c1cc(Cl)c(Oc2ccc(Cl)cc2O)c(Cl)c1` [CHP-DCPBA, (3,5-dichloro-4-(4-chloro-2-hydroxyphenoxy)phenyl)boronic acid]: the IC50 at GOB-1 was 468.5 ± 0.01 µM; at NDM-1 (setting [1]), 37.77 ± 0.01 µM; at GIM-1 (Subclass B1 MBL, enzyme 662 nM, 100 μM nitrocefin, 5 minute pre-incubation, read-out: IC50 GIM-1), 81.35 ± 0.03 µM; against IMP-1 it was 468.3 ± 0.01 µM; at VIM-2, 15.15 ± 0.01 µM; on CphA (Subclass B2 MBL, enzyme 157 nM, 100 μM nitrocefin, 5 minute pre-incubation, read-out: IC50 CphA), 80.81 ± 0.01 µM. In addition, the “IC50 of CphA relative to that for DCPBA” value against CphA is “six-fold lower”.
Consider `OB(O)c1cc(Cl)cc(Cl)c1` [Compound 1, 3,5-Dichlorophenylboronic Acid], for which the IC50 against GOB-1 came out at 798.9 ± 0.02 µM; on NDM-1 (NDM-1 263 nM, nitrocefin 100 μM, 50 mM MES pH 7.0, 5 min pre-incubation at 30° C., read-out: IC50 values on NDM-1 of the screened compounds), 79.9 µM; against GIM-1 it was 144.64 ± 0.01 µM; against IMP-1, 738.88 ± 0.01 µM; at VIM-2 it was 27.33 ± 0.01 µM; at CphA, 530.87 ± 0.02 µM.

(Values after US11395829B2, “Inhibitors of metallo-beta-lactamases produced by multidrug-resistant bacteria” (MYONGJI UNIVERSITY INDUSTRY AND ACADEMIA COOPERATION …, priority 2019, dated 2022).)
